{
  "source": "patent US20250295096A1",
  "about": "“A RODENT MODEL OF FIBRODYSPLASIA OSSIFICANS PROGRESSIVA” (REGENERON PHARMACEUTICALS, INC., priority 2022, published 2025)",
  "test_system": "Acvr1^huecto[R206H]FIEx;[S330P]/+; Nanog-Cre mice (\"FOP mice\")",
  "assay": "Anti-Activin A antibody treatment of FOP mice: survival and HO formation",
  "assay_type": "in vivo, mouse",
  "experimental": "Wild type mice and Acvr1^huecto[R206H]FIEx;[S330P]/+; Nanog-Cre mice (“FOP mice”) were treated with an anti-Activin A monoclonal antibody (Garetosmab) or an isotype control antibody.\nWild type mice and Acvr1^huecto[R206H]FIEx;[S330P]/+; Nanog-Cre mice (“FOP mice”) were treated with an anti-Activin A monoclonal antibody (Garetosmab) and an isotype control antibody. […] The deaths in untreated FOP mice are believed to be possibly due to jaw HO.",
  "data": [
    {"substance": "Garetosmab: anti-Activin A monoclonal antibody", "values": [
      {"measurement": "HO formation", "setting": "compared with isotype control antibody", "result": "inhibited HO formation"},
      {"measurement": "survival", "setting": "treatment initiated at 2 weeks of age, survival through 8 weeks of age", "result": 100, "unit": "%"}
    ]}
  ]
}
